# From patent US10227344B2, “CK2 inhibitors, compositions and methods thereof” (Polaris Pharmaceuticals, Inc., priority 2016, dated 2019)
# Structures can show the parent of a compound that is named as a salt.
# Target: purified CK2α enzyme (Homo sapiens, UniProt P68400)
# Experiment: CK2 Protein Kinase Inhibition Assay (coupled PK/LDH assay)
# Assay type: biochemical
# Conditions: CK2 enzyme 25 nM, 100 μM ATP, 37° C., Morrison equation
# Method: A coupled PK (pyruvate kinase)/LDH (lactate dehydrogenase) assay was used to measure compounds' ability to inhibit purified CK2α enzyme.
# The ADP product of kinase CK2a is the cofactor for PK. Phospho(enol)pyruvate (PEP) PEP is metabolized by pyruvate kinase to yield pyruvate, which is the substrate for LDH.
# Serially diluted compounds were pre-incubated for 10 min at 37° C. with and 1.5 mM […] peptide substrate, 6 U/ml PK and 10 U/ml LDH (purchased from Sigma-Aldrich), 100 μM ATP, 1.2 mM NADH, 4 mM PEP in the reaction buffer (50 mM Tris (pH 8.25), 0.1 M NaCl, 10 mM magnesium acetate). The reaction was initiated by the addition of an equal volume of purified CK2 enzyme (final concentration 25 nM) diluted in the reaction buffer. Absorbance at 340 nm was measured overtime (for 30 min) at 37° C.; as NADH was converted to NAD+ the absorbance decreases. Absorbance decrease rate (per min) was plotted against the compound concentration and Ki is determined by GraphPad Prism using Morrison equation. All data points were performed in triplicate and each compound was tested in at least two separate experiments.
# To this end, K, values of less than 2.5 nM are labelled as “+++”, from 2.5 nM to 10 nM are labelled as “++”, and greater than 10 nM are labelled as “+”.
# Chain of purified CK2α enzyme (P68400 whole entry): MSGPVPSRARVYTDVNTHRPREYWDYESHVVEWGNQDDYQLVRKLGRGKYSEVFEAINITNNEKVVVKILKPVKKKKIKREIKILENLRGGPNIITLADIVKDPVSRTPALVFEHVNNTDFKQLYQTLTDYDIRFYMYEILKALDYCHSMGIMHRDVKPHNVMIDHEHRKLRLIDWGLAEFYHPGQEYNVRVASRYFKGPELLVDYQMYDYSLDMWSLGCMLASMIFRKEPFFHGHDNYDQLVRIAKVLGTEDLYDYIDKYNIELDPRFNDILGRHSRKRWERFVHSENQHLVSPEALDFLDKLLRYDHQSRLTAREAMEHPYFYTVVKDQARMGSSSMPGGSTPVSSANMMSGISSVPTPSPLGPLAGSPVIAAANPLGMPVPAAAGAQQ
row,Ki,SMILES
1,> 10 nM,"C[S+]([O-])Cc1cc(Nc2cc(NC3CC3)n3ncc(C#N)c3n2)ccc1-c1cn[nH]c1 (racemic) [Example 35, (±)-7-(Cyclopropylamino)-5-((3-((methylsulfinyl)methyl)-4-(1H-pyrazol-4-yl)phenyl)amino)pyrazolo[1,5-a]pyrimidine-3-carbonitrile]"
2,2.5 to 10 nM,"CN(CCN)c1ccc(Nc2nc(NC3CC3)c3ncc(C#N)n3n2)cc1CS(C)(=O)=O [Example 50, 2-((4-((2-aminoethyl)(methyl)amino)-3-((methylsulfonyl)methyl)phenyl)amino)-4-(cyclopropylamino)imidazo[2,1-f][1,2,4]triazine-7-carbonitrile mono trifluoroacetic acid salt]"
3,2.5 to 10 nM,"C[S+]([O-])Cc1cc(Nc2cc(NC3CC3)n3ncc(C#N)c3n2)ccc1N1CCNCC1 (racemic) [Example 14, (±)-7-(Cyclopropylamino)-5-((3-((methylsulfinyl)methyl)-4-(piperazin-1-yl)phenyl)amino)pyrazolo[1,5-a]pyrimidine-3-carbonitrile mono trifluoroacetic acid salt]"
4,2.5 to 10 nM,"C[S+]([O-])Cc1cc(Nc2cc(NC3CC3)n3ncc(C#N)c3n2)ccc1OCC(C)(C)N (racemic) [Example 30, (±)-5-((4-(2-amino-2-methylpropoxy)-3-((methylsulfinyl)methyl)phenyl)amino)-7-(cyclopropylamino)pyrazolo[1,5-a]pyrimidine-3-carbonitrile mono trifluoroacetic acid salt]"
5,< 2.5 nM,"C[S+]([O-])Cc1cc(Nc2cc(NC3CC3)n3ncc(C#N)c3n2)ccc1Cl (racemic) [Example 1, (±)-5-((4-Chloro-3-((methylsulfinyl)methyl)phenyl)amino)-7-(cyclopropylamino)pyrazolo[1,5-a]pyrimidine-3-carbonitrile]"
6,2.5 to 10 nM,"C[S+]([O-])Cc1cc(Nc2cc(NC3CC3)n3ncc(C#N)c3n2)ccc1F (racemic) [Example 5, (±)-7-(Cyclopropylamino)-5-((4-fluoro-3-((methylsulfinyl)methyl)phenyl)amino)pyrazolo[1,5-a]pyrimidine-3-carbonitrile]"
7,< 2.5 nM,"CS(=O)(=O)Cc1cc(Nc2cc(NC3CC3)n3ncc(C#N)c3n2)ccc1C#N [Example 9, 5-((4-Cyano-3-((methylsulfonyl)methyl)phenyl)amino)-7-(cyclopropylamino)pyrazolo[1,5-a]pyrimidine-3-carbonitrile]"
8,< 2.5 nM,"CNCCN(C)c1ccc(Nc2cc(NC3CC3)n3ncc(C#N)c3n2)cc1C[S+](C)[O-] (racemic) [Example 21, (±)-7-(Cyclopropylamino)-5-((4-(methyl(2-(methylamino)ethyl)amino)-3-((methylsulfinyl)methyl)phenyl)amino)pyrazolo[1,5-a]pyrimidine-3-carbonitrile mono trifluoroacetic acid salt]"
9,< 2.5 nM,"CS(=O)(=O)Cc1cc(Nc2cc(NC3CC3)n3ncc(C#N)c3n2)ccc1Cl [Example 2, 5-((4-Chloro-3-((methylsulfonyl)methyl)phenyl)amino)-7-(cyclopropylamino)pyrazolo[1,5-a]pyrimidine-3-carbonitrile]"
10,2.5 to 10 nM,"CN(c1ccc(Nc2cc(NC3CC3)n3ncc(C#N)c3n2)cc1C[S+](C)[O-])C1CNC1 (racemic) [Example 44, (±)-5-((4-(Azetidin-3-yl(methyl)amino)-3-((methylsulfinyl)methyl)phenyl)amino)-7-(cyclopropylamino)pyrazolo[1,5-a]pyrimidine-3-carbonitrile]"
11,< 2.5 nM,"C[S+]([O-])Cc1cc(Nc2cc(NC3CC3)n3ncc(C#N)c3n2)ccc1N1CC(O)C1 (racemic) [Example 27, (±)-7-(cyclopropylamino)-5-((4-(3-hydroxyazetidin-1-yl)-3-((methylsulfinyl)methyl)phenyl)amino)pyrazolo[1,5-a]pyrimidine-3-carbonitrile]"
12,< 2.5 nM,"CS(=O)(=O)Cc1cc(Nc2cc(NC3CC3)n3ncc(C#N)c3n2)ccc1CCN [Example 11, 5-((4-(2-Aminoethyl)-3-((methylsulfonyl)methyl)phenyl)amino)-7-(cyclopropylamino)pyrazolo[1,5-a]pyrimidine-3-carbonitrile mono trifluoroacetic acid salt]"
13,2.5 to 10 nM,"C[S+]([O-])Cc1cc(Nc2cc(NC3CC3)n3ncc(C#N)c3n2)ccc1OCC1(N)CC1 (racemic) [Example 28, (±)-5-((4-((1-aminocyclopropyl)methoxy)-3-((methylsulfinyl)methyl)phenyl)amino)-7-(cyclopropylamino)pyrazolo[1,5-a]pyrimidine-3-carbonitrile mono trifluoroacetic acid salt]"
14,2.5 to 10 nM,"C[S+]([O-])Cc1cc(Nc2cc(NC3CC3)n3ncc(C#N)c3n2)ccc1C#N (racemic) [Example 6, (±)-5-((4-Cyano-3-((methylsulfinyl)methyl)phenyl)amino)-7-(cyclopropylamino)pyrazolo[1,5-a]pyrimidine-3-carbonitrile]"
15,< 2.5 nM,"CN(CCN)c1ccc(Nc2cc(NC3CC3)n3ncc(C#N)c3n2)cc1C[S+](C)[O-] (racemic) [Example 7, (±)-5-((4-((2-Aminoethyl)(methyl)amino)-3-((methylsulfinyl)methyl)phenyl)amino)-7-(cyclopropylamino)pyrazolo[1,5-a]pyrimidine-3-carbonitrile mono trifluoroacetic acid salt]"
16,2.5 to 10 nM,"C[S@@+]([O-])Cc1cc(Nc2cc(NC3CC3)n3ncc(C#N)c3n2)ccc1Cl [Example 4, (R)(−)-5-((4-Chloro-3-((methylsulfinyl)methyl)phenyl)amino)-7-(cyclopropylamino)pyrazolo[1,5-a]pyrimidine-3-carbonitrile]"
17,2.5 to 10 nM,"CN(c1ccc(Nc2cc(NC3CC3)n3ncc(C#N)c3n2)cc1CS(C)(=O)=O)C1CNC1 [Example 45, 5-((4-(Azetidin-3-yl(methyl)amino)-3-((methylsulfonyl)methyl)phenyl)amino)-7-(cyclopropylamino)pyrazolo[1,5-a]pyrimidine-3-carbonitrile]"
18,< 2.5 nM,"C[S+]([O-])Cc1cc(Nc2cc(NC3CC3)n3ncc(C#N)c3n2)ccc1N1CC(CN)C1 (racemic) [Example 42, (±)-5-((4-(3-(Aminomethyl)azetidin-1-yl)-3-((methylsulfinyl)methyl)phenyl)amino)-7-(cyclopropylamino)pyrazolo[1,5-a]pyrimidine-3-carbonitrile]"
19,2.5 to 10 nM,"C[S+]([O-])Cc1cc(Nc2cc(NC3CC3)n3ncc(C#N)c3n2)ccc1C1CCNC1 (racemic) [Example 63, (±)-7-(Cyclopropylamino)-5-((3-((methylsulfinyl)methyl)-4-((R,S)-pyrrolidin-3-yl)phenyl)amino)pyrazolo[1,5-a]pyrimidine-3-carbonitrile mono trifluoroacetic acid salt]"
20,< 2.5 nM,"C[S+]([O-])Cc1cc(Nc2cc(NC3CC3)n3ncc(C#N)c3n2)ccc1N1CCCC1 (racemic) [Example 46, (±)-7-(Cyclopropylamino)-5-((3-((methylsulfinyl)methyl)-4-(pyrrolidin-1-yl)phenyl)amino)pyrazolo[1,5-a]pyrimidine-3-carbonitrile]"
21,< 2.5 nM,"CN(c1ccc(Nc2cc(NC3CC3)n3ncc(C#N)c3n2)cc1C[S+](C)[O-])C1CC1 (racemic) [Example 36, (±)-5-((4-(Cyclopropyl(methyl)amino)-3-((methylsulfinyl)methyl)phenyl)amino)-7-(cyclopropylamino)pyrazolo[1,5-a]pyrimidine-3-carbonitrile]"
